Like-named read-outs stand apart in the source and are kept apart here.
Tests used:
C. albicans ATCC 11651 = experiment: MIC; assay type: cell-based, Candida albicans; details: C. albicans ATCC 11651
C. albicans OY 003 = experiment: MIC; assay type: cell-based, Candida albicans; details: C. albicans OY 003
C. albicans IFO 1385 = experiment: MIC; assay type: cell-based, Candida albicans; details: C. albicans IFO 1385
C. albicans KCTC 1940 = experiment: MIC; assay type: cell-based, Candida albicans; details: C. albicans KCTC 1940
C. albicans OY 019 = experiment: MIC; assay type: cell-based, Candida albicans; details: C. albicans OY 019
C. albicans ATCC 28838 = experiment: MIC; assay type: cell-based, Candida albicans; details: C. albicans ATCC 28838
C. parapsilosis = experiment: MIC; assay type: cell-based; details: Lodderomyces parapsilosis; C. parapsilosis; read-out: MIC
Epidermophyton floccosum = experiment: Antifungal efficacy of creamy formulation against local fungal skin infection; assay type: in vivo, mouse (SKH/1, hairless, male); details: 0.5% cream, topical
Protocol: Specific pathogen free SKH/1 male mouse(Hairless) of which weight is 30-35 g and age is 5 weeks, was reared with sterilized water and feed for 12 night/day in the condition of 21-23° C. and of 50% relative humidity. Five mice were allocated by each group. After skin infection, each mouse was taken in separate cage. The strain of microorganism for infection(Epidermophyton floccosum) was cultivated on a flat medium of SDA(Sabouraud Dextrose Agar) for 5-7 days and after confirmation of macrocomidia, 3 ml of RPMI (Rosewell Park Memorial Institute) 1640 media per each flat medium was added thereto and then scraped well using loop to remove hyphae from media. The floating liquid was suspended briefly and then diluted with RPMI 1640 media to adjust the concentration of hyphae to 2×10^6 CFU/ml. Mouse was anesthetized and marked on back site(lumbosacral area) in a shape of circle of which diameter is 1.5 cm. Then, the inner part of marked skin was scratched with sand paper. The scratched part was covered with a filter paper to preserve inoculated microorganism for a long time and thereby stimulating the skin continuously. 0.2 ml of fungus solution of which concentration is adjusted as described above, was inoculated between the skin and filter paper. 5 Days after the inoculation, the filter paper was removed and the infection of skin was examined. The test formulations, 0.5% creamy formulations of the compounds Nos. 62 and 85, 1.0% creamy formulation of Terbinafine(Lamisile cream) and a placebo was applied on the infected areas in a same amount once a day for 5 days. The clinical evaluation on the change of the infected area in 5 days after the inoculation was performed and expressed numerically from 0 to 4. The daily change of the infected area was checked every day. The result of each group was compared with each other.
1: Mild erythema or small number of skin eruption
2: Well-demarcated erythema with scales or mild skin eruption of infected area
3: Wide area of marked skin eruption, scales, swelling or severe skin eruption with partial swelling and scales
4: The same as those of control, or severe skin eruption in entire lesion
The result was calculated as follows;
T: Average score of clinical evaluation in drug treated area
K: Average score of clinical evaluation in placebo control group
Moreover, the antifungal efficacies of the 0.5% creamy formulation of the compounds Nos. 29, 35, 60, 62, 63 and 85, and 1% creamy formulation of Terbinafme (Lamisil cream), which are measured by applying the above formulations on the skin infected with Epidermophyton floccosum of mouse which is the standard animal for the test of local fungal skin infection, i.e, Specific Pathogen Free SKH/1, are described in the following Table 4.

C. krusei = experiment: MIC; assay type: cell-based; details: Pichia kudriavzevii; C. krusei; read-out: MIC
C. albicans ATCC 10231 = experiment: MIC; assay type: cell-based; details: Candida albicans, ATCC10231; C. albicans ATCC 10231; read-out: MIC
E. floccosum = experiment: MIC; assay type: cell-based, Epidermophyton floccosum; details: E. floccosum
C. glulliermendi = experiment: MIC; assay type: cell-based; details: C. glulliermendi; read-out: MIC
C. albicans U.K. = experiment: MIC; assay type: cell-based; details: Candida albicans; C. albicans U.K.; read-out: MIC
C. glabrata = experiment: MIC; assay type: cell-based; details: Nakaseomyces glabratus; C. glabrata; read-out: MIC
[1] = Candida albicans, ATCC11651, read-out: MIC
[2] = Candida albicans, OY003, read-out: MIC
[3] = Candida albicans, IFO1385, read-out: MIC
[4] = Candida albicans, KCTC1940, read-out: MIC
[5] = Candida albicans, OY019, read-out: MIC
[6] = Candida albicans, ATCC28838, read-out: MIC

Compound | MIC (C. albicans ATCC 11651; [1]) | MIC (C. albicans OY 003; [2]) | MIC (C. albicans IFO 1385; [3]) | MIC (C. albicans KCTC 1940; [4]) | MIC (C. albicans OY 019; [5]) | MIC (C. albicans ATCC 28838; [6]) | Efficacy (%) 0 day later (Epidermophyton floccosum) | Efficacy (%) 1 day later (Epidermophyton floccosum) | Efficacy (%) 2 day later (Epidermophyton floccosum) | Efficacy (%) 3 day later (Epidermophyton floccosum) | Efficacy (%) 4 day later (Epidermophyton floccosum) | Efficacy (%) 5 day later (Epidermophyton floccosum) | Efficacy (%) 6 day later (Epidermophyton floccosum) | Efficacy (%) 7 day later (Epidermophyton floccosum) | further results
COc1ccc2c(Cc3cccc(Oc4ccccc4)c3)c3[n+](cc2c1OC)CCc1cc2c(cc1-3)OCO2 [compound 58, 13-(3-phenoxybenzyl)berberine chloride] | 12.5 µg/mL | 6.25 µg/mL | 25 µg/mL | 12.5 µg/mL | 12.5 µg/mL | 3.12 µg/mL | – | – | – | – | – | – | – | – | –
COc1ccc2c(Cc3ccc(C(C)(C)C)cc3)c3[n+](c(O)c2c1OC)CCc1cc2c(cc1-3)OCO2.[Cl-] [compound 64, 8-hydroxy-13-(4-t-butylbenzyl) berberine chloride] | – | – | – | – | – | – | – | – | – | – | – | – | – | – | MIC (C. albicans ATCC 11651): 3.125 µg/mL; MIC (C. albicans OY 003): 6.25 µg/mL; MIC (C. albicans IFO 1385): 25 µg/mL; MIC (E. floccosum): > 100 µg/mL; MIC (C. albicans KCTC 1940): 12.5 µg/mL; MIC (C. albicans OY 019): 0.4 µg/mL; MIC (C. albicans ATCC 28838): 3.125 µg/mL
COc1cc2c(cc1OC)-c1c(Cc3ccc(C(C)(C)C)cc3)c3ccc(OC)c(OC)c3c[n+]1CC2 [compound 77, 13-(4-t-butylbenzyl)palmatine iodide] | 0.78 µg/mL | 0.78 µg/mL | 3.12 µg/mL | 1.56 µg/mL | 1.56 µg/mL | 0.78 µg/mL | – | – | – | – | – | – | – | – | –

The next lines start with results.

MIC (C. albicans ATCC 11651; [1]) | MIC (C. albicans OY 003; [2]) | MIC (C. albicans IFO 1385; [3]) | MIC (C. albicans KCTC 1940; [4]) | MIC (C. albicans OY 019; [5]) | MIC (C. albicans ATCC 28838; [6]) | Compound | Efficacy (%) 0 day later (Epidermophyton floccosum) | Efficacy (%) 1 day later (Epidermophyton floccosum) | Efficacy (%) 2 day later (Epidermophyton floccosum) | Efficacy (%) 3 day later (Epidermophyton floccosum) | Efficacy (%) 4 day later (Epidermophyton floccosum) | Efficacy (%) 5 day later (Epidermophyton floccosum) | Efficacy (%) 6 day later (Epidermophyton floccosum) | Efficacy (%) 7 day later (Epidermophyton floccosum) | further results
1.56 µg/mL | 1.56 µg/mL | 3.12 µg/mL | 1.56 µg/mL | 1.56 µg/mL | 0.78 µg/mL | COc1ccc2c(Cc3ccc(OC(F)(F)F)cc3)c3[n+](cc2c1OC)CCc1cc2c(cc1-3)OCO2 [compound 31, 13-(4-trifluoromethoxybenzyl) berberine chloride] | – | – | – | – | – | – | – | – | –
0.78 µg/mL | 0.78 µg/mL | 6.25 µg/mL | 0.78 µg/mL | 1.56 µg/mL | 1.56 µg/mL | COc1ccc2c(Cc3ccc(-c4ccccc4)cc3)c3[n+](cc2c1OC)CCc1cc2c(cc1-3)OCO2 [compound 35, 13-(4-phenylbenzyl)berberine chloride] | 0% | 36.0% | 57.9% | 68.4% | 72.2% | 74.0% | 75.4% | 76.8% | MIC (C. parapsilosis): > 100 µg/mL; MIC (C. krusei): 3.12 µg/mL; MIC (C. albicans ATCC 10231): 6.25 µg/mL; MIC (E. floccosum; Epidermophyton floccosum, read-out: MIC): 12.5 µg/mL; MIC (C. glulliermendi): 12.5 µg/mL; MIC (C. albicans U.K.): 12.5 µg/mL; MIC (C. glabrata): > 100 µg/mL
6.25 µg/mL | 6.25 µg/mL | 25 µg/mL | 6.25 µg/mL | 12.5 µg/mL | 3.12 µg/mL | C=Cc1ccc(Cc2c3[n+](cc4c(OC)c(OC)ccc24)CCc2cc4c(cc2-3)OCO4)cc1 [compound 60, 13-(4-vinylbenzyl)berberine chloride] | 0% | 20.0% | 32.0% | 36.0% | 48.6% | 51.5% | 58.6% | 60.5% | –
